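Growth conditions: 96-well plates. Treatment: test compound, 48 hours, 5 concentrations. Analysis: linear interpolation between bracketing concentrations; unreached endpoints set to highest concentration. TGI: total growth inhibition.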
Columns and labels:
Assay in all cases: NCI-60 cell line screen, 48 h
SF-268 CNS = tested on: SF-268 CNS
SK-MEL-28 melanoma = tested on: SK-MEL-28 melanoma
MOLT-4 leukemia = tested on: MOLT-4 leukemia
HCT-116 colon = tested on: HCT-116 colon
UACC-257 melanoma = tested on: UACC-257 melanoma
UO-31 renal = tested on: UO-31 renal
CCRF-CEM leukemia = tested on: CCRF-CEM leukemia
SN12C renal = tested on: SN12C renal
NCI/ADR-RES ovarian = tested on: NCI/ADR-RES ovarian
SNB-19 CNS = tested on: SNB-19 CNS
OVCAR-3 ovarian = tested on: OVCAR-3 ovarian
SK-MEL-2 melanoma = tested on: SK-MEL-2 melanoma
K-562 leukemia = tested on: K-562 leukemia
SK-OV-3 ovarian = tested on: SK-OV-3 ovarian
TK-10 renal = tested on: TK-10 renal
SF-295 CNS = tested on: SF-295 CNS
NCI-H23 lung = tested on: NCI-H23 lung
MALME-3M melanoma = tested on: MALME-3M melanoma
SNB-75 CNS = tested on: SNB-75 CNS
NCI-H226 lung = tested on: NCI-H226 lung
OVCAR-8 ovarian = tested on: OVCAR-8 ovarian
OVCAR-5 ovarian = tested on: OVCAR-5 ovarian
ACHN renal = tested on: ACHN renal
SW-620 colon = tested on: SW-620 colon
RPMI-8226 leukemia = tested on: RPMI-8226 leukemia
COLO 205 colon = tested on: COLO 205 colon
HOP-62 NSCLC = tested on: HOP-62 NSCLC
MDA-N = tested on: MDA-N
U251 CNS = tested on: U251 CNS
HOP-92 NSCLC = tested on: HOP-92 NSCLC
786-0 renal = tested on: 786-0 renal
CAKI-1 renal = tested on: CAKI-1 renal
MDA-MB-231 breast = tested on: MDA-MB-231 breast
BT-549 breast = tested on: BT-549 breast
OVCAR-4 ovarian = tested on: OVCAR-4 ovarian
HCT-15 colon = tested on: HCT-15 colon
EKVX NSCLC = tested on: EKVX NSCLC
A549 NSCLC = tested on: A549 NSCLC
M14 melanoma = tested on: M14 melanoma
UACC-62 melanoma = tested on: UACC-62 melanoma
KM12 colon = tested on: KM12 colon
NCI-H522 lung = tested on: NCI-H522 lung
PC-3 prostate = tested on: PC-3 prostate
HS 578T breast = tested on: HS 578T breast
IGROV1 ovarian = tested on: IGROV1 ovarian
SK-MEL-5 melanoma = tested on: SK-MEL-5 melanoma
HL-60(TB) leukemia = tested on: HL-60(TB) leukemia
MDA-MB-435 = tested on: MDA-MB-435
RXF 393 renal = tested on: RXF 393 renal
HT29 colon = tested on: HT29 colon
DU-145 prostate = tested on: DU-145 prostate
MCF7 breast = tested on: MCF7 breast
NCI-H460 lung = tested on: NCI-H460 lung
LOX IMVI melanoma = tested on: LOX IMVI melanoma
HCC-2998 colon = tested on: HCC-2998 colon
A498 renal = tested on: A498 renal
T-47D breast = tested on: T-47D breast

SMILES: Oc1ccc2ccccc2c1N=Nc1cc(Cl)ccc1Cl
- TGI (SF-268 CNS): > 50 µM
- TGI (SK-MEL-28 melanoma): > 50 µM
- TGI (MOLT-4 leukemia): > 50 µM
- TGI (HCT-116 colon): 48.1 µM
- TGI (UACC-257 melanoma): > 50 µM
- TGI (UO-31 renal): > 50 µM
- TGI (CCRF-CEM leukemia): > 50 µM
- TGI (SN12C renal): > 50 µM
- TGI (NCI/ADR-RES ovarian): > 50 µM
- TGI (SNB-19 CNS): > 50 µM
- TGI (OVCAR-3 ovarian): > 50 µM
- TGI (SK-MEL-2 melanoma): > 50 µM
- TGI (K-562 leukemia): > 50 µM
- TGI (SK-OV-3 ovarian): 41.2 µM
- TGI (TK-10 renal): 35.9 µM
- TGI (SF-295 CNS): 28.6 µM
- TGI (NCI-H23 lung): > 50 µM
- TGI (MALME-3M melanoma): > 50 µM
- TGI (SNB-75 CNS): 23.9 µM
- TGI (NCI-H226 lung): > 50 µM
- TGI (OVCAR-8 ovarian): 30.2 µM
- TGI (OVCAR-5 ovarian): > 50 µM
- TGI (ACHN renal): 24.7 µM
- TGI (SW-620 colon): > 50 µM
- TGI (RPMI-8226 leukemia): > 50 µM
- TGI (COLO 205 colon): > 50 µM
- TGI (HOP-62 NSCLC): 20.8 µM
- TGI (MDA-N): > 50 µM
- TGI (U251 CNS): 22 µM
- TGI (HOP-92 NSCLC): > 50 µM
- TGI (786-0 renal): 17 µM
- TGI (CAKI-1 renal): > 50 µM
- TGI (MDA-MB-231 breast): 27.9 µM
- TGI (BT-549 breast): > 50 µM
- TGI (OVCAR-4 ovarian): 28.8 µM
- TGI (HCT-15 colon): > 50 µM
- TGI (EKVX NSCLC): 20.6 µM
- TGI (A549 NSCLC): > 50 µM
- TGI (M14 melanoma): > 50 µM
- TGI (UACC-62 melanoma): > 50 µM
- TGI (KM12 colon): > 50 µM
- TGI (NCI-H522 lung): > 50 µM
- TGI (PC-3 prostate): > 50 µM
- TGI (HS 578T breast): 21.4 µM
- TGI (IGROV1 ovarian): 18.1 µM
- TGI (SK-MEL-5 melanoma): > 50 µM
- TGI (HL-60(TB) leukemia): > 50 µM
- TGI (MDA-MB-435): > 50 µM
- TGI (RXF 393 renal): > 50 µM
- TGI (HT29 colon): > 50 µM

SMILES: C[C@@H]1C(=O)O[C@H]1[C@H](O)CO
- TGI (SK-MEL-28 melanoma): > 100 µM
- TGI (MOLT-4 leukemia): > 100 µM
- TGI (HCT-116 colon): > 100 µM
- TGI (DU-145 prostate): > 100 µM
- TGI (UACC-257 melanoma): > 100 µM
- TGI (CCRF-CEM leukemia): > 100 µM
- TGI (SN12C renal): > 100 µM
- TGI (NCI/ADR-RES ovarian): > 100 µM
- TGI (MCF7 breast): > 100 µM
- TGI (SNB-19 CNS): > 100 µM
- TGI (OVCAR-3 ovarian): > 100 µM
- TGI (SK-MEL-2 melanoma): > 100 µM
- TGI (SK-OV-3 ovarian): > 100 µM
- TGI (TK-10 renal): > 100 µM
- TGI (SF-295 CNS): > 100 µM
- TGI (NCI-H23 lung): > 100 µM
- TGI (SNB-75 CNS): > 100 µM
- TGI (OVCAR-8 ovarian): > 100 µM
- TGI (OVCAR-5 ovarian): > 100 µM
- TGI (ACHN renal): > 100 µM
- TGI (SW-620 colon): > 100 µM
- TGI (RPMI-8226 leukemia): > 100 µM
- TGI (NCI-H460 lung): > 100 µM
- TGI (COLO 205 colon): > 100 µM
- TGI (HOP-62 NSCLC): > 100 µM
- TGI (MDA-N): > 100 µM
- TGI (U251 CNS): > 100 µM
- TGI (HOP-92 NSCLC): > 100 µM
- TGI (786-0 renal): > 100 µM
- TGI (LOX IMVI melanoma): > 100 µM
- TGI (CAKI-1 renal): > 100 µM
- TGI (BT-549 breast): > 100 µM
- TGI (OVCAR-4 ovarian): > 100 µM
- TGI (HCT-15 colon): > 100 µM
- TGI (EKVX NSCLC): > 100 µM
- TGI (HCC-2998 colon): > 100 µM
- TGI (A549 NSCLC): > 100 µM
- TGI (M14 melanoma): > 100 µM
- TGI (A498 renal): > 100 µM
- TGI (UACC-62 melanoma): > 100 µM
- TGI (KM12 colon): > 100 µM
- TGI (PC-3 prostate): > 100 µM
- TGI (SK-MEL-5 melanoma): > 100 µM
- TGI (HL-60(TB) leukemia): > 100 µM
- TGI (MDA-MB-435): > 100 µM
- TGI (RXF 393 renal): > 100 µM
- TGI (T-47D breast): > 100 µM

Source: PubChem BioAssay (NCI)
